In brackets after ≈: the same amount, converted by molar mass.
Test: Solubility and hygroscopicity of psilocybin (Polymorph A or A′)
Format: physicochemical
Conditions: in Water; form Polymorph A or A′
Excerpt: In some embodiments, the psilocybin of the disclosure in the form Polymorph A or A′ has the general properties illustrated in Table D.

CN(C)CCc1c[nH]c2cccc(OP(=O)(O)O)c12 [Psilocybin, psilocybin]
solubility: ~15 mg/mL (≈ 52.8 mM)

From patent publication US20230023092A1, “TREATMENT OF DEPRESSION AND OTHER VARIOUS DISORDERS WITH PSILOCYBIN” (COMPASS […], priority 2019, published 2023)
